Numbers after ± are expanded uncertainties.
Settings: Liquid; for speed of sound: Pulse-echo method; for mass density: Vibrating tube method

CCCCCCCCCCCCCC(=O)OC [methyl tetradecanoate]
Settings	mass density [kg/m3]	speed of sound [m/s]
303.15 K, 100 kPa	–	1335.8 ± 5.5
303.15 K, 101.3 kPa	859.7 ± 1	–
303.15 K, 10000 kPa	866.3 ± 1	1382.9 ± 5.7
303.15 K, 20000 kPa	872.4 ± 1.1	1426.9 ± 5.9
303.15 K, 30000 kPa	878.2 ± 1.1	1468.1 ± 6
303.15 K, 40000 kPa	883.7 ± 1.1	1507.6 ± 6.2
303.15 K, 50000 kPa	888.9 ± 1.1	1544.9 ± 6.3
303.15 K, 60000 kPa	893.8 ± 1.1	1580.2 ± 6.5
303.15 K, 70000 kPa	898.5 ± 1.1	1614.2 ± 6.6
313.15 K, 101.3 kPa	851.6 ± 1	–
313.15 K, 10000 kPa	858.2 ± 1	–
313.15 K, 20000 kPa	864.7 ± 1.1	–
313.15 K, 30000 kPa	870.7 ± 1.1	–
313.15 K, 40000 kPa	876.4 ± 1.1	–
313.15 K, 50000 kPa	881.7 ± 1.1	–
313.15 K, 60000 kPa	886.8 ± 1.1	–
313.15 K, 70000 kPa	891.7 ± 1.1	–
313.15 K, 80000 kPa	896.3 ± 1.1	–
323.15 K, 100 kPa	–	1264 ± 5.2
323.15 K, 101.3 kPa	843.3 ± 1	–
323.15 K, 10000 kPa	850.5 ± 1	1316.4 ± 5.4
323.15 K, 20000 kPa	857.2 ± 1.1	1364.8 ± 5.6
323.15 K, 30000 kPa	863.5 ± 1.1	1409.6 ± 5.8
323.15 K, 40000 kPa	869.4 ± 1.1	1451.9 ± 6
323.15 K, 50000 kPa	874.9 ± 1.1	1492.5 ± 6.1
323.15 K, 60000 kPa	880.2 ± 1.1	1530.5 ± 6.3
323.15 K, 70000 kPa	885.2 ± 1.1	1566.8 ± 6.4
323.15 K, 80000 kPa	889.9 ± 1.1	1601.2 ± 6.5
333.15 K, 101.3 kPa	835.2 ± 1	–
333.15 K, 10000 kPa	843 ± 1	–
333.15 K, 20000 kPa	850.1 ± 1.1	–
333.15 K, 30000 kPa	856.6 ± 1.1	–
333.15 K, 40000 kPa	862.7 ± 1.1	–
333.15 K, 50000 kPa	868.4 ± 1.1	–
333.15 K, 60000 kPa	873.8 ± 1.1	–
333.15 K, 70000 kPa	879 ± 1.1	–
333.15 K, 80000 kPa	883.9 ± 1.1	–
343.15 K, 100 kPa	–	1195.7 ± 5
343.15 K, 101.3 kPa	827.9 ± 1	–
343.15 K, 10000 kPa	835.7 ± 1	1251.2 ± 5.2
343.15 K, 20000 kPa	843.1 ± 1.1	1302.9 ± 5.4
343.15 K, 30000 kPa	849.8 ± 1.1	1350.8 ± 5.6
343.15 K, 40000 kPa	856.2 ± 1.1	1396 ± 5.7
343.15 K, 50000 kPa	862.1 ± 1.1	1437.4 ± 5.9
343.15 K, 60000 kPa	867.7 ± 1.1	1477.5 ± 6.1
343.15 K, 70000 kPa	873 ± 1.1	1515 ± 6.2
343.15 K, 80000 kPa	878 ± 1.2	1550.8 ± 6.3
353.15 K, 101.3 kPa	820.2 ± 1	–
353.15 K, 10000 kPa	828.5 ± 1	–
353.15 K, 20000 kPa	836.1 ± 1.1	–
353.15 K, 30000 kPa	843.2 ± 1.1	–
353.15 K, 40000 kPa	849.8 ± 1.1	–
353.15 K, 50000 kPa	855.9 ± 1.1	–
353.15 K, 60000 kPa	861.6 ± 1.1	–
353.15 K, 70000 kPa	867.1 ± 1.1	–
353.15 K, 80000 kPa	872.3 ± 1.2	–
363.15 K, 100 kPa	–	1130.9 ± 4.7
363.15 K, 101.3 kPa	812.6 ± 1	–
363.15 K, 10000 kPa	821.2 ± 1	1190.4 ± 4.9
363.15 K, 20000 kPa	829.2 ± 1.1	1245.2 ± 5.1
363.15 K, 30000 kPa	836.6 ± 1.1	1295.9 ± 5.3
363.15 K, 40000 kPa	843.4 ± 1.1	1342.5 ± 5.5
363.15 K, 50000 kPa	849.7 ± 1.1	1385.7 ± 5.7
363.15 K, 60000 kPa	855.6 ± 1.1	1426.7 ± 5.9
363.15 K, 70000 kPa	861.2 ± 1.2	1465.5 ± 6
363.15 K, 80000 kPa	866.6 ± 1.2	1502.6 ± 6.1
373.15 K, 101.3 kPa	804.6 ± 1	–
373.15 K, 10000 kPa	813.9 ± 1.1	–
373.15 K, 20000 kPa	822.2 ± 1.1	–
373.15 K, 30000 kPa	829.9 ± 1.1	–
373.15 K, 40000 kPa	836.9 ± 1.1	–
373.15 K, 50000 kPa	843.5 ± 1.1	–
373.15 K, 60000 kPa	849.6 ± 1.1	–
373.15 K, 70000 kPa	855.3 ± 1.2	–
373.15 K, 80000 kPa	860.8 ± 1.2	–
383.15 K, 100 kPa	–	1066.7 ± 4.5
383.15 K, 101.3 kPa	796.4 ± 1	–
383.15 K, 10000 kPa	806.3 ± 1.1	1131.3 ± 4.7
383.15 K, 20000 kPa	815.1 ± 1.1	1189.6 ± 4.9
383.15 K, 30000 kPa	823 ± 1.1	1242.9 ± 5.1
383.15 K, 40000 kPa	830.3 ± 1.1	1291.7 ± 5.3
383.15 K, 50000 kPa	837.1 ± 1.1	1338 ± 5.5
383.15 K, 60000 kPa	843.4 ± 1.1	1380.3 ± 5.7
383.15 K, 70000 kPa	849.3 ± 1.2	1420.4 ± 5.8
383.15 K, 80000 kPa	854.9 ± 1.2	1457.6 ± 6
393.15 K, 100 kPa	–	1036.2 ± 4.3
393.15 K, 101.3 kPa	788.5 ± 1	–
393.15 K, 10000 kPa	798.6 ± 1.1	1103.6 ± 4.6
393.15 K, 20000 kPa	807.7 ± 1.1	1163.5 ± 4.8
393.15 K, 30000 kPa	815.9 ± 1.1	1217.8 ± 5
393.15 K, 40000 kPa	823.5 ± 1.1	1267.7 ± 5.2
393.15 K, 50000 kPa	830.5 ± 1.1	1314.4 ± 5.4
393.15 K, 60000 kPa	837 ± 1.2	1357.8 ± 5.6
393.15 K, 70000 kPa	843.1 ± 1.2	1397.8 ± 5.7
393.15 K, 80000 kPa	848.8 ± 1.2	1436.8 ± 5.9

Reference: the NIST ThermoML archive (doi:10.1021/je400122k)
